# Assay results taken from patent EP0406685A1, “Substituted polysaccharides, method for their preparation as well as their use in prophylaxis and treatment of viral diseases” (HOECHST AKTIENGESELLSCHAFT, priority 1989, dated 1991).
# Test system: Friend Leukämie Virus
# Assay: FLV model of the mouse (Friend leukaemia virus infection, relative spleen weight)
# Type: in vivo
# Conditions: i.p.; for rel.Milzgewicht in % Körpergew.: start 2 days after infection, spleen 14 days after infection
# Description: Da für die HIV-Infektion des Menschen kein überzeugendes Infektionsmodell bei Labortieren existiert, muß bei der Prüfung von Chemotherapeutika auf Infektionen mit anderen Retroviren zurückgegriffen werden. Im vorliegenden Falle wurde die Infektion der Maus mit dem Friend Leukämie Virus gewählt.
# Normale Labormäuse (NMRI = Naval Medical Research Institute) wurden durch intravenöse Injektion mit Friend-Virus enthaltendem Mäuseserum infiziert. Bei den unbehandelten Kontrolltieren entwickelt sich als Symptom der Infektion innerhalb von 2 Wochen bzw. 3 Wochen eine deutliche Vergrößerung von Milz und Leber. Die Behandlung erfolgt über 10 Tage bei intraperitonealer Applikation und über 16 Tage bei oraler Applikation der Testsubstanzen. Bei intraperitonealer Gabe der Testsubstanzen beginnt die Behandlung 48 Stunden nach der Infektion, bei peroraler Gabe der Testsubstanz 4 Tage vor der Infektion. Am 14. Tag nach Infektion werden die Tiere durch Luxation der Halswirbel getötet und geöffnet. Die Milz wird entnommen und gewogen. Als Meßparameter der therapeutischen Wirksamkeit wird das Milzgewicht der behandelten Tiere mit den der unbehandelten Infektionskontrolle in Relation gesetzt.
# Für die orale Applikation werden die Prüfsubstanzen in Trinkwasser gelöst. Alle 24 Stunden werden die Trinkwasserbehälter mit jeweils 100 ml Inhalt gewechselt. Aus dem täglich ermittelten Verbrauch an Trinkwasser pro Versuchskollektiv wird die durchschnittliche Dosismenge errechnet, die einer Maus pro 24 Stunden appliziert wurde.
# Während bei uninfizierten, ausgewachsenen Labormäusen (20 - 24 g Körpergewicht) die Milz weniger als 1 % des Körpergewichtes wiegt, erreicht bei infizierten Tieren die Milz am Ende des Versuchs etwa bis zu 10 % des Körpergewichtes.
# Als Vergleichspräparate dienen Suramin (= 3,3′-Ureylen-bis-(8-(3-benzamido-4-methylbenzamido)-naphthalin-1,3,5-trisulfonsäure|) bei intraperitonealer Gabe bzw. Pentosanpolysulfat bei intraperitonealer und oraler Gabe.
structure (smiles),measurement,setting,value
"Cc1ccc(C(=O)Nc2ccc(S(=O)(=O)O)c3cc(S(=O)(=O)O)cc(S(=O)(=O)O)c23)cc1NC(=O)c1cccc(NC(=O)Nc2cccc(C(=O)Nc3cc(C(=O)Nc4ccc(S(=O)(=O)O)c5cc(S(=O)(=O)O)cc(S(=O)(=O)O)c45)ccc3C)c2)c1 [Suramin, 3,3′-Ureylen-bis-(8-(3-benzamido-4-methylbenzamido)-naphthalin-1,3,5-trisulfonsäure|)]",rel.Milzgewicht in % Körpergew.,"10 x 0,1 mg/Maus, second series (Kontrolle 7,25)","5,68 % Körpergew."
same,Anzahl überlebender Mäuse n,"10 x 0,1 mg/Maus, second series (Kontrolle 10)",10
same,rel.Milzgewicht in % Körpergew.,"10 x 1,0 mg/Maus, first series (Kontrolle 6,41)","4,96 % Körpergew."
same,Anzahl überlebender Mäuse n,"10 x 1,0 mg/Maus, first series (Kontrolle 10)",10
